In US7125848B2, “Methods of treating non-inflammatory gastrointestinal tract disorders using Cav2.2 subunit calcium channel modulators” (Dynogen Pharmaceuticals, Inc., priority 2003, dated 2006):

Tested on: HVA calcium channel currents in GI tract afferent DRG neurons
Type: cell-based, rat

Omega-conotoxin GVIA (CKSHYPGSSCSHYPTSYNCCRSCNHYPYTKRCY; VARIANT (0)...(0) omega-conotoxin GVIA; listed as Conus geographus)
calcium current amplitude as percentage of control amplitudes: 59±4%
